Measurements published in patent US20100292179A1, “TARGET” (The University of Durham, priority 2006, published 2010).
Starred links: 1 amine or outer side, 2 acyl side, 3 side chain; linkers in the order of their positions; H or OH if unused. Non-standard residues stand in square brackets, D forms with d. Residues, ends and D or L forms follow the SMILES beside them. X1 = CC[C@@H](C)[C@@H](O[*:1])C(=O)[*:2]; NMeVal(β-OH) = CN[C@H](C(=O)O)C(C)(C)O; NMeF = CN[C@@H](Cc1ccccc1)C(=O)O; aIle = CC[C@@H](C)[C@H](N)C(=O)O; NMeV = CN[C@H](C(=O)O)C(C)C

Experiments:
T. cruzi enzyme (TcIPCS) = conditions: even at levels 1000 fold higher than that which inhibit the S. cerevisiae enzyme; crude parasite membrane extracts; cited from earlier work
Wild type YPH499 yeast = test: Agar diffusion assay, wild type yeast; format: cell-based, S. cerevisiae; conditions: FIG. 5A; 25 μM Aureobasidin A, 1 mM myriocin, 25 μM cycloheximide spotted
Protocol: (§1) A. Volumes of 1, 2 and 3 μl of 25 μM Aureobasidin A (AbA), 1 mM myriocin (MYR), 25 μM cycloheximide (CYC) and DMSO as a control (CTL) spotted onto yeast plates prepared as described in Experimental Procedures. B. Volumes of 1, 2 and 3 μl of 100 μM Aureobasidin A spotted onto yeast plates prepared as described in Experimental Procedures.
(§2) YPH499—wild type yeast; ScIPCS—YPH499-HIS-GAL-AUR1 pRS426 ScIPCS; LmIPCS—YPH499-HIS-GAL-AUR1 pRS426 LmIPCS; AGD—yeast sphingolipid bypass mutant, negative control.
(§3) Agar diffusion assay—Wild type YPH499 yeast and the transgenic strain YPH499-HIS-GAL-AUR1 complemented with ScIPCS or LmIPCS were assayed for susceptibility to Aureobasidin A (Takara), myriocin (Sigma) and cycloheximide (Sigma) as previously described (19). Briefly, 2.4×10^7 logarithmically dividing cells were embedded in 15 ml of YPD agararose (2% dextrose, 1% yeast extract, 2% peptone, 0.8% agarose) on […] square Petri dishes (Sarstedt). Inhibitors were applied in DMSO at the concentrations described below and the dishes incubated at 30° C.
(§4) In this study, the diffusion assay system previously described, with the sphingolipid bypass mutant (AGD) as a negative control, was utilized (6,19).

[1] = tested on: YPH499-HIS-GAL-AUR1 complemented with ScIPCS; test: Agar diffusion assay, yeast mutant rescued with ScIPCS; format: cell-based, S. cerevisiae; conditions: FIG. 5A; 25 μM Aureobasidin A, 1 mM myriocin, 25 μM cycloheximide spotted
Protocol: as §1, §2, §3, §4

[2] = tested on: YPH499-HIS-GAL-AUR1 complemented with LmIPCS; test: Agar diffusion assay, yeast mutant rescued with LmIPCS; format: cell-based, S. cerevisiae
Protocol: as §1, §2, §3, §4

[3] = tested on: samples from fungal Aspergillus spp.; conditions: lack of susceptibility attributed to efflux; cited from earlier work
[4] = tested on: parasites without an active sphingolipid biosynthetic pathway; test: Effect on Leishmania parasites without an active sphingolipid biosynthetic pathway; format: cell-based; conditions: 20 μM; data not shown
IPC synthase = target: T1, IPC synthase (Saccharomyces cerevisiae, UniProt P36107); conditions: with respect to ceramide; cited from earlier work
T1 sequence (P36107 1-401): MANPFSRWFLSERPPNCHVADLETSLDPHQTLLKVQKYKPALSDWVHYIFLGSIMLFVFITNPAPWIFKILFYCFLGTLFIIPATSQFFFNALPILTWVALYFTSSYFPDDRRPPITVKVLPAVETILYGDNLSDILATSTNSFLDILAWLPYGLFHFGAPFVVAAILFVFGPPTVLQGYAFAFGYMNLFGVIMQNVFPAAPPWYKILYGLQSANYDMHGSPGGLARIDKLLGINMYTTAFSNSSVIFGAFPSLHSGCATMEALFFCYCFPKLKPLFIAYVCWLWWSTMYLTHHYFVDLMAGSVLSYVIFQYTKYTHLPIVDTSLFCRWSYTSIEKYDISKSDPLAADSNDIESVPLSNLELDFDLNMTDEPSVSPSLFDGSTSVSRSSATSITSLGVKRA
T1 sequence (Q06346 1-221 partner): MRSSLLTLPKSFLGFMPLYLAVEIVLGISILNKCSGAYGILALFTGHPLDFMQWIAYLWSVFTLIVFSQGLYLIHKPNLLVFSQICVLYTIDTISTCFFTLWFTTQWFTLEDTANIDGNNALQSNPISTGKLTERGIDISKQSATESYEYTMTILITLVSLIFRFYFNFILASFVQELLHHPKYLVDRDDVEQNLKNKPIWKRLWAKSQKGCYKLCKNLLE

[5] = tested on: AGD yeast sphingolipid bypass mutant; test: Agar diffusion assay, sphingolipid bypass mutant (negative control); format: cell-based, S. cerevisiae; conditions: 100 μM Aureobasidin A
Protocol: as §1, §2, §3, §4

insect stage Leishmania = test: Effect on insect stage Leishmania in culture; format: cell-based; conditions: 20 μM; data not shown
[6] = FIG. 5A, 1, 2 and 3 μl of 25 μM Aureobasidin A, 1 mM myriocin, 25 μM cycloheximide spotted, 30° C.

| SMILES | T. cruzi enzyme activity (T. cruzi enzyme (TcIPCS)) | susceptibility in agar diffusion assay (Wild type YPH499 yeast) | susceptibility in agar diffusion assay [1] | susceptibility in agar diffusion assay [2, 6] | sensitivity compared with wild-type or mutant rescued with ScIPCS ([2]; FIG. 5A, 1 mM myriocin) | susceptibility of Aspergillus spp. samples [3] | activity against parasites in which LmIPCS is redundant, relative to insect stage Leishmania [4] | mode of inhibition (IPC synthase) | inhibitory effect on growth [5] | effect against insect stage Leishmania in culture (insect stage Leishmania) | specificity of the inhibitor in Leishmania culture (insect stage Leishmania) | susceptibility in agar diffusion assay ([2]; FIG. 5B, 100 μM Aureobasidin A, 1, 2 and 3 μl spotted) |
| --- | --- | --- | --- | --- | --- | --- | --- | --- | --- | --- | --- | --- |
| C=C1/C=C(\C)[C@H](CC)CC(=O)[C@H](C)C(=O)[C@@](O)(CO)C/C(OC)=C/[C@@H](C)C1 [rustmicin] | unaffected | – | – | – | – | – | – | – | – | – | – | – |
| C[C@@H]1C[C@@H]([C@H](O)CC2CC(=O)NC(=O)C2)C(=O)[C@@H](C)C1 [cycloheximide] | – | sensitive | sensitive | sensitive | – | – | – | – | – | – | – | – |
| CCCCCCC(=O)CCCCCC/C=C/C[C@@H](O)[C@H](O)[C@@](N)(CO)C(=O)O [myriocin] | – | sensitive | sensitive | sensitive | increased sensitivity | – | – | – | – | – | – | – |
| CC[C@@H](C)[C@@H]1NC(=O)[C@@H]2CCCN2C(=O)[C@H](Cc2ccccc2)N(C)C(=O)[C@H](Cc2ccccc2)NC(=O)[C@H](C(C)C)N(C)C(=O)[C@@H]([C@H](C)CC)OC(=O)[C@H](C(C)(C)O)N(C)C(=O)[C@H](CC(C)C)NC(=O)[C@H](C(C)C)N(C)C1=O [Aureobasidin A] (cyclo(F[NMeF]P[aIle][NMeV]L[NMeVal(β-OH)][X1][NMeV])) | unaffected | sensitive | sensitive | resistant | – | only susceptible to Aureobasidin A in the presence of mammalian multi-drug resistance modulators | equivalent activity | non-competitive inhibitor | lack of an inhibitory effect | exhibited an effect | non-specific | sensitivity of LmIPCS to the drug was evident |
